The results in this text go back to ChEMBL document CHEMBL1201862, “PubChem BioAssay data set” (2004).

Active and inactive are the calls of the source.

As usually defined, the EC50 is the concentration giving half of the maximal effect. A word on the IC50: it is the midpoint of a concentration-inhibition curve. As usually defined, the AC50 is the concentration at which the activity in the assay is half-maximal.

Assay [1] concerns the target Luciferin 4-monooxygenase (Photinus pyralis, UniProt P08659). Description: inhibition of purified Photinus pyralis luciferase – biochemical, luminescence, dose response (AID 1891).
The nature of assay [2]: Luminescence Cell-Based Dose Confirmation HTS to Identify Inhibitors of Platelet Dense Granule Release. [Related pubchem assays: 1663 (Primary HTS), 1678 (Summary of Project)]. In kind it is functional.
Assay [3] deals with Genome polyprotein (dengue virus type 2, UniProt P29990). Description: flavivirus cap methylation enzyme inhibition – biochemical, confirmation dose response, primary screen (AID 588689). In kind it is functional.
Genome polyprotein, sequence (P29990 2492-3391 limits assumed): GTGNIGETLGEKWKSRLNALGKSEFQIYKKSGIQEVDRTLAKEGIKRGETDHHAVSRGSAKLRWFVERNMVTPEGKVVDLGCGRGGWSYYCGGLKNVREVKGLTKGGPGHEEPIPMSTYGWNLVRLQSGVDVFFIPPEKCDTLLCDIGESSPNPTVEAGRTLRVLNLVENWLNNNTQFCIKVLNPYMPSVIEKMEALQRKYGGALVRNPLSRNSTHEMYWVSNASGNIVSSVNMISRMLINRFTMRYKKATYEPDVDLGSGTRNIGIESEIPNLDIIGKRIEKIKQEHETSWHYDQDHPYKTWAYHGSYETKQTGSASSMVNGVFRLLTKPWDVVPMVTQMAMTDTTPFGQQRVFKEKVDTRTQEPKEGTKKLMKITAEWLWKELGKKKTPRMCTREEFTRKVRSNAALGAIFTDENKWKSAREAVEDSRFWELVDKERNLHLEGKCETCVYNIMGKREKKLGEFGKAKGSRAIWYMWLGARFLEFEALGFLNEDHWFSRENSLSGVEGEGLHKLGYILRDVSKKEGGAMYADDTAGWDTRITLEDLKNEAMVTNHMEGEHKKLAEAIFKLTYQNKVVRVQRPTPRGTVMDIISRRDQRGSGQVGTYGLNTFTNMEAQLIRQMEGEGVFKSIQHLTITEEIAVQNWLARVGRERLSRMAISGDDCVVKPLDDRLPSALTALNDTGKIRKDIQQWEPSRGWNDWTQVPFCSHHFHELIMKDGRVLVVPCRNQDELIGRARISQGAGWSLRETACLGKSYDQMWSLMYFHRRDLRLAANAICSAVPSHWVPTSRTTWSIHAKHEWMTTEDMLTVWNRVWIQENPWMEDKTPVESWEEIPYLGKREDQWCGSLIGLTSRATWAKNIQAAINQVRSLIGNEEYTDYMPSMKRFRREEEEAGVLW
Assay [4] has as its target T1, High affinity choline transporter 1 (Homo sapiens, UniProt Q9GZV3).
T1 sequence (Q9GZV3 whole entry): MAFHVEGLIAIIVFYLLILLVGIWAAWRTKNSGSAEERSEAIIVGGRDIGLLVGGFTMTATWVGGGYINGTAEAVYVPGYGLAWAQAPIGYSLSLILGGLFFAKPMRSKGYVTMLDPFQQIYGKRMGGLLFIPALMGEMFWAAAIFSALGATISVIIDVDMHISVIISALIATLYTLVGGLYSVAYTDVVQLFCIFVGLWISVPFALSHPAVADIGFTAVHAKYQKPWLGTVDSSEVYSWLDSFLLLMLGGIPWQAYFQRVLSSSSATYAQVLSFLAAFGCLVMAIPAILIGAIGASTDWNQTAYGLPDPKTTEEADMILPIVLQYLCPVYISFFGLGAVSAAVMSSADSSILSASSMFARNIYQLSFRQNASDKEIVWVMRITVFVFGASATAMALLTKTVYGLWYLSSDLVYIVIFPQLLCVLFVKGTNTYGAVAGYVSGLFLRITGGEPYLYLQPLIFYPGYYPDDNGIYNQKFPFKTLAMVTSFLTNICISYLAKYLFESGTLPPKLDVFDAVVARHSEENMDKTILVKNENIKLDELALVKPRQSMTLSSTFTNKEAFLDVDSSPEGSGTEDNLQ
Description: human choline transporter blockers, potency – cell-based, 5-point CRC, membrane potential dye, dose response (AID 504840). In kind it is functional.

In assay [5] the target is T2, Protein skinhead-1 (Caenorhabditis elegans, UniProt P34707).
T2 sequence (P34707 whole entry): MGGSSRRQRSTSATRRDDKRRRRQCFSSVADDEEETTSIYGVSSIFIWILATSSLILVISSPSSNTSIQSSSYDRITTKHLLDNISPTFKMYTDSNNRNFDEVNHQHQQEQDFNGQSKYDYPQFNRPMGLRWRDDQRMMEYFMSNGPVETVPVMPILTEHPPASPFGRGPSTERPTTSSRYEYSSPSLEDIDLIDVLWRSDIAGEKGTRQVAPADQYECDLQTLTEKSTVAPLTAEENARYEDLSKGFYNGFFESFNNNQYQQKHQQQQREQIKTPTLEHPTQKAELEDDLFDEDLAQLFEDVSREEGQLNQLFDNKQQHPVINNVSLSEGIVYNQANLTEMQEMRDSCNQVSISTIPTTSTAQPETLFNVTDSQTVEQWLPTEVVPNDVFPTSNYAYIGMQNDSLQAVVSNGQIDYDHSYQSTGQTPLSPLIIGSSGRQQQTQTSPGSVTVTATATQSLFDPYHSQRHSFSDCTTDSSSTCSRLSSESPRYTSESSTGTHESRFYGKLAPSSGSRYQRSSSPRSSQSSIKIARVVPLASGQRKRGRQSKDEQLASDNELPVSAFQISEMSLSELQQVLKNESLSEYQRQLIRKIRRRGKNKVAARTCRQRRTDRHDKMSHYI
In kind it is functional.

For assay [6], the system named is H9c2. Description: cells. In kind it is functional, cell-based. The following applies: Rattus norvegicus, H9c2, Myocardium.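 Also: confirmatory concentration-response retest of ultra-high-throughput screening hits for modulation of myocardial damage; cell death induced by hydrogen peroxide oxidative stress; compound pretreatment for 60 min then peroxide exposure for 2 h; potency is for protecting the cells against peroxide damage rather than for killing them.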
A short description of assay [7]: luciferase reporter signal suppression in cells – H4 neuroglioma cells, luminescence, dose response (AID 1990). In kind it is functional, cell-based. For orientation: A reporter such as luciferase makes a cellular process visible.
Assay [8] is described as follows: Luminescence Cell-Based Dose Response HTS to Identify Inhibitors of 5'UTR Stem-Loop Driven Prion Protein mRNA Translation in H4 Neuroglioblastoma Cells. [Related pubchem assays: 1827 (Project Summary), 1813 (Primary HTS)]. In kind it is functional.
The nature of assay [9]: alpha-synuclein stem-loop luciferase translation blockers – H4 neuroglioma cells, luminescence, confirmation (AID 1988). In kind it is functional, cell-based.
Assay [10] has as its target T3, RNA-binding protein pos-1 (Caenorhabditis elegans, UniProt G5EF15).
T3 sequence (G5EF15 whole entry): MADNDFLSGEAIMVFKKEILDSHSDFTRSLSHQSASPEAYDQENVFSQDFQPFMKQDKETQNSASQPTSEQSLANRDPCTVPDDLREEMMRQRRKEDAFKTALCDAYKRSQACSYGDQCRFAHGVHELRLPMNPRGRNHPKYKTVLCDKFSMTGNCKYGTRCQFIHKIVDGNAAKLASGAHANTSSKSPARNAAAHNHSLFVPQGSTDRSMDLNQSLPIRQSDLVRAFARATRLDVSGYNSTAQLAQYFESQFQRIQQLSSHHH
The assay can be described thus: disruptors of C. elegans POS-1 RNA interaction – biochemical, fluorescence polarization, dose response (AID 1964).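 Also: purified POS-1 fused to maltose binding protein made in E. coli; potency of compounds blocking POS-1 binding to fluorescent RNA.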 Background: Polarisation of emitted light reports the rotation of a fluorescent probe.

Assay [11] has as its system Streptococcus sp. 'group A'. The assay can be described thus: Streptococcus pyogenes SK(-)GAS viability under kanamycin – luminescence, BacTiterGlo, confirmation, counter-screen for streptokinase expression inhibitor project, dose response (AID 1900). In kind it is functional, organism-based.
Assay [12] has as its target T4, Zinc finger protein mex-5 (Caenorhabditis elegans, UniProt Q9XUB2).
T4 sequence (Q9XUB2 whole entry): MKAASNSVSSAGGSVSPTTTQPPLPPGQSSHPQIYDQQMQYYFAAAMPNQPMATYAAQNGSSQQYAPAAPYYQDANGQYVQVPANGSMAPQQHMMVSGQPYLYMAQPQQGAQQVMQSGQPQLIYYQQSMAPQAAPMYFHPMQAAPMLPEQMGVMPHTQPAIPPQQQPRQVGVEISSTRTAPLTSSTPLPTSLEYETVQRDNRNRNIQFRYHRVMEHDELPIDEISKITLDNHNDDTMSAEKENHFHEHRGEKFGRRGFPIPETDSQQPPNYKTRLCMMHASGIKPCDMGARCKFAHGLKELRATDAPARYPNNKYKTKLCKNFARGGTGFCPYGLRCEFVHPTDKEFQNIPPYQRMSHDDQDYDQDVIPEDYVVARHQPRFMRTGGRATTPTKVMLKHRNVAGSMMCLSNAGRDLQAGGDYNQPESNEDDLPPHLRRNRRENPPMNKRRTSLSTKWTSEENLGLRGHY
Description: potency of MEX-5 RNA-binding blockers – biochemical, C. elegans, fluorescence polarization, dose response (AID 1960).

Assay [13] addresses T5, Streptokinase A (Streptococcus pyogenes serotype M1, UniProt P10520).
T5 sequence (P10520 whole entry): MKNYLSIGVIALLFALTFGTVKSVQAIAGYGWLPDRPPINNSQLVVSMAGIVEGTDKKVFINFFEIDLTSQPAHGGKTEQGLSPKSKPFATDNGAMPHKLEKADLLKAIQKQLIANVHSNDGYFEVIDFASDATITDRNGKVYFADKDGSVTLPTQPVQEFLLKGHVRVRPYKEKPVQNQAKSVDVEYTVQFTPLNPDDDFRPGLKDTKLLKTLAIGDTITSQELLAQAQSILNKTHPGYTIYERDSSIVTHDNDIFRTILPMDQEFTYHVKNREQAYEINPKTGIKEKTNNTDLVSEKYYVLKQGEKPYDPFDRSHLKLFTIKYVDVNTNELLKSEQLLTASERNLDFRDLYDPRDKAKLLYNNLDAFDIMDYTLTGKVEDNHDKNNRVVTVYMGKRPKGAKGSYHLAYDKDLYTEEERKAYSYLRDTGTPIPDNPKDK
The assay can be described thus: viability-normalized secreted streptokinase activity reduction – plasminogen activation absorbance, OD405, dose response (AID 1914).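 Also: secreted streptokinase activity via plasminogen activation per viability signal from cell pellet.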 In kind it is functional, Streptococcus pyogenes M1 GAS.

In assay [14] the test system is Streptococcus. The assay can be described thus: GAS UMAA2166 growth inhibition – luminescence, BacTiterGlo, counter-screen for streptokinase expression inhibitor project, dose response (AID 1915).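 Also: potency for reduction of bacterial viability or growth.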 In kind it is functional, organism-based. For orientation: Counterscreens check selectivity or assay interference.
Assay [15] deals with Induced myeloid leukemia cell differentiation protein Mcl-1 (Homo sapiens, UniProt Q07820). In kind it is functional.
Induced myeloid leukemia cell differentiation protein Mcl-1, sequence (Q07820 whole entry): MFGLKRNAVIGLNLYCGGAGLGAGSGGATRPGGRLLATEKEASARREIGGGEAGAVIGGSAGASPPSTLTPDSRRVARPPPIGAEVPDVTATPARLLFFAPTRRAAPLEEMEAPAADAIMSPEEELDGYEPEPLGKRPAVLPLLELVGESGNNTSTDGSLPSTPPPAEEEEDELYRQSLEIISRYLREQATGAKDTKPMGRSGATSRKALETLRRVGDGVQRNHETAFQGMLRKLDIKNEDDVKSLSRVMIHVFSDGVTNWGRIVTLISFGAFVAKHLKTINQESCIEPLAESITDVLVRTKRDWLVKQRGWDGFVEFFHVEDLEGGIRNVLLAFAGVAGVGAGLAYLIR
Assay [16] deals with Cytochrome P450 2C19 (Homo sapiens, UniProt P33261). Description: Cytochrome panel assay with activity outcomes. Panel member name: p450-cyp2c19 Compounds with AC50 equal or less than 10 uM are considered active. In kind it is functional. To be noted: read-out: AC50.
Cytochrome P450 2C19, sequence (P33261 whole entry): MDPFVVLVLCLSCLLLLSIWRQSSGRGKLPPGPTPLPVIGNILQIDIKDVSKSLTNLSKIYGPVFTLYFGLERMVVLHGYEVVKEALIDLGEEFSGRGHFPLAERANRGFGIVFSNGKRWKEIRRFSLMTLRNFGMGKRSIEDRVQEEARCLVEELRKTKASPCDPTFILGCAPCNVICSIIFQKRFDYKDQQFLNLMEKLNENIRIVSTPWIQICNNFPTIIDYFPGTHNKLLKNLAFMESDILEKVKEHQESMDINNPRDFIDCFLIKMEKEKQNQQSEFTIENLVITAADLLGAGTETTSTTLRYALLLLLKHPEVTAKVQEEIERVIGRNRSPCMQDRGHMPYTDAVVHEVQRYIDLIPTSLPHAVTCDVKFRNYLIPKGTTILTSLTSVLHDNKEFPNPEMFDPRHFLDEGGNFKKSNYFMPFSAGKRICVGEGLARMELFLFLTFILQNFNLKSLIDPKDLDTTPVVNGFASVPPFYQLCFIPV
Assay [17] has as its target T6, Rac GTPase-activating protein 1 (Homo sapiens, UniProt Q9H0H5).
T6 sequence (Q9H0H5 whole entry): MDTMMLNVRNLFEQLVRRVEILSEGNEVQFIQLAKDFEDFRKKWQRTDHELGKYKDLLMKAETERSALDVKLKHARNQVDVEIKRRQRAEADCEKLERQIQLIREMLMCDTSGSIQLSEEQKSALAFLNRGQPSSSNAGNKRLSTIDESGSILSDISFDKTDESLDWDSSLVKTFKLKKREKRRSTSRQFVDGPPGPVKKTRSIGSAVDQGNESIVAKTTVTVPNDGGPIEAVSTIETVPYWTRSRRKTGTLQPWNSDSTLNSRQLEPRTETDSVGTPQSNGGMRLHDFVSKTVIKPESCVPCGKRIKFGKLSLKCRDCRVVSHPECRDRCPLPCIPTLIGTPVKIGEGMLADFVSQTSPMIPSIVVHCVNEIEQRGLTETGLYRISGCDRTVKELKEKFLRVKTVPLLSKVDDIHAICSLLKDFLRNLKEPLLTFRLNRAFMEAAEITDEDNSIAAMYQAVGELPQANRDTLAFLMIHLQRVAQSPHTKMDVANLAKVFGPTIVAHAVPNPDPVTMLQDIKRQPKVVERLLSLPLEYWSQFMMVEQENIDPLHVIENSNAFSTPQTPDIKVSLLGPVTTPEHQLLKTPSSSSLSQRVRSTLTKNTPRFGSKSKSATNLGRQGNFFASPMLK
Description: blockers of MgcRacGAP-driven Rac1 GTP hydrolysis – biochemical, ADP Hunter fluorescence, primary and confirmatory, confirmation (AID 624330). In kind it is functional.

Luciferin 4-monooxygenase, sequence (P08659 whole entry): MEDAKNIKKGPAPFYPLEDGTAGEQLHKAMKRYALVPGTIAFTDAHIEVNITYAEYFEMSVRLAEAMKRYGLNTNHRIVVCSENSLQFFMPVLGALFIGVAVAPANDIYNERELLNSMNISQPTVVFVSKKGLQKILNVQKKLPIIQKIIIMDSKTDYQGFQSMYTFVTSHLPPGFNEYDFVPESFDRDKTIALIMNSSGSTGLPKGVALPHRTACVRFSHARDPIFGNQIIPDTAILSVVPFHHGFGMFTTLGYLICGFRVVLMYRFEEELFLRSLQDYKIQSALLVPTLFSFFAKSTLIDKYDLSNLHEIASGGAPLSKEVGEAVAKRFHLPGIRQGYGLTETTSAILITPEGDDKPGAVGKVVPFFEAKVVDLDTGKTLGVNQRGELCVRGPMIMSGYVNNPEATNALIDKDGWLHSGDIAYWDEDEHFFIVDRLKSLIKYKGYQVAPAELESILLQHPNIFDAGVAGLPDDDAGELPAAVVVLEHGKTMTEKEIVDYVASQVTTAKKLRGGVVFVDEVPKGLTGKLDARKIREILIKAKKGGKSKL

With `COc1ccc(/C=N/Nc2nccnc2Cl)c(OC)c1`, the EC50 is 6.55 µM (active) in assay [1] and 2.65 µM (active) in assay [2].
Taken in the same sequence, the figures for `CCCCCc1nc2sc3c(c2c(=O)n1N)CCC3` were > 112 µM (not active) and > 112 µM (not active).
In the case of `CCOc1ccc(/C=C/c2nc(O)nc(O)c2[N+](=O)[O-])cc1`, the IC50 in assay [3] is 45.9 µM (active).
`Cc1ccc(N2NC(=O)/C(=C/c3ccc(-c4ccc(Cl)c(C(=O)O)c4)o3)C2=O)cc1C`: the IC50 in assay [3] was 79.1 µM (active).
For the compound `Cc1ccc(C(=O)Nc2ncc([N+](=O)[O-])s2)cc1`, the values for the IC50 in assay [4] and in assay [5] were 10.5 µM (active) and > 100 µM (inactive), respectively.
In the case of `O=c1cc(COc2ncnc3c(Cl)cc(Cl)cc23)nc2sccn12`, the EC50 in assay [1] and in assay [2] was > 112 µM (not active) in each case. Also, the IC50 in assay [6] was > 79 µM (inactive).
For `c1ccc2nc(-c3ccc(N4CCOCC4)cc3)ccc2c1`, the EC50 in assay [7] was 4.01 µM (inconclusive); in assay [8], 0.757 µM (active); in [9] it was 0.413 µM (inconclusive); in assay [1], 0.793 µM (active); in assay [2] it was 3.7 µM (active).
In the case of `Cc1csc(NC(=O)c2ccco2)n1`, the half-maximal effective concentration (EC50) in assay [1] is > 112 µM (not active); in assay [2], 20.1 µM (active).
Taken in the same sequence, the figures for `CC(=O)Nc1ccc(C(=O)N(C)c2ccccc2)cc1` were > 112 µM (not active) and > 112 µM (not active).
On to `CCOC(=O)N1CCN(C(=O)CCCN2C(=O)CSc3nc(C)cc(C)c32)CC1`, for which the EC50 in assay [1] and in assay [2] was > 112 µM (not active) each time.
As for `CCOC(=O)Cc1sc(N)nc1C`, the concentration for a half-maximal effect (EC50) in assay [1] and in assay [2] was > 112 µM (not active) each time.
As to `CSC1=NSC2=NC(=O)/C(=C\c3c[nH]c4ccccc34)C(=N)N12`, the EC50 in assay [10] is > 300 µM (inconclusive); in assay [11], 1.95 µM (active); in [12] it was 17.9 µM (inconclusive); in assay [13] it was > 150 µM (not active); in [14], > 150 µM (not active). Moreover, the concentration for half-maximal inhibition (IC50) in [3] was > 100 µM (active).
For the compound `COc1ccc(/C=C2/C(=O)NC(=O)N(c3ccccc3)C2=O)cc1CN1C(=O)c2ccccc2C1=O`, the IC50 in assay [3] was 73.9 µM (active).
On to `COc1cc(/C=N/c2cccc(C)c2)c(O)c([N+](=O)[O-])c1`, for which the IC50 in [4] is 13.2 µM (active).
On the same count and under the same terms, the value for `CC1(C)c2[nH]c3ccccc3c2C[C@@H]2C(=O)N(Cc3ccccc3)C(=O)N21` was 12.9 µM (active).
Consider `CCOc1cccc2cc(C(=O)NCc3cccnc3)c(=O)oc12`, for which the EC50 in [1] and in [2] was > 112 µM (not active) in each case.
As for `CCOc1ccc(S(=O)(=O)NCCC(=O)N2CCCN(C)CC2)cc1`, the EC50 in assay [1] and in [2] was > 112 µM (not active) in each case.
Take `CN(C)c1ccc(NC(=O)c2cccc(N3C(=O)C4C5C=CC(C5)C4C3=O)c2)cc1` (stereo unspecified): the IC50 is 1.89 µM (not active) in assay [15] and 49.2 µM (active) in [17]. In [16], the AC50 was 25.1 µM (inconclusive).
With `COc1ccc(C(=O)N2CCCCCC2)cc1OC1CCN(C(C)C)CC1`, in assay [4], the IC50 is 13.9 µM (active).
